Assay results as given in patent US11691949B2, “Quinoline sulfonamide compounds and their use as antibacterial agents” (OTAGO INNOVATION LIMITED, priority 2017, dated 2023).
Values after ≈ are worked out from the molar mass of the structure shown. Like-named read-outs stand apart in the source and are kept apart here.

How the values were obtained:
Format in all cases: cell-based
S. uberis ATCC 19436 = assay: MIC by broth microdilution, S. uberis; details: Streptococcus uberis, read-out: S. uberis ATCC 19436 MIC
Outline: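 Streptococcus uberis ATCC 19436 was tested in Todd Hewitt Broth by broth microdilution in 96-well flat bottom plates, in biological triplicate. Overnight cells were diluted to OD600 of approximately 0.025, giving about 5×10^5 cfu/mL in the wells. Compounds were serially diluted two-fold to 200 μl, incubated 24 h at 37° C. and 200 rpm, and the MIC was taken from OD600.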

S. aureus ATCC 6538 = assay: MIC by broth microdilution, S. aureus; details: Staphylococcus aureus, read-out: S. aureus ATCC 6538 MIC
Outline: (§1)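 Two-fold serial dilutions were tested in broth at ~5×10^5 cfu/mL: S. aureus in TSB or CAMHB, E. coli in LB or CAMHB, with 50 μM zinc sulphate added as required. After 24 h at 37° C, 200 rpm, MIC was the lowest concentration showing no growth by OD600.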

E. coli ATCC 10596 = assay: MIC by broth microdilution, E. coli; details: Escherichia coli, read-out: E. coli ATCC 10536 MIC
Outline: as §1

[1] = ATCC 10536 / ATCC 10596, No Zinc
[2] = ATCC 10536 / ATCC 10596, Zinc (50 μM)

| SMILES | MIC (S. uberis ATCC 19436; ATCC19436, No Zinc) [µg/mL] | MIC (S. uberis ATCC 19436; ATCC19436, Zinc (50 μM)) [µg/mL] | MIC (S. aureus ATCC 6538; ATCC6538, No Zinc) [µg/mL] | MIC (S. aureus ATCC 6538; ATCC6538, Zinc (50 μM)) [µg/mL] | MIC (E. coli ATCC 10596; [1]) [µg/mL] | MIC (E. coli ATCC 10596; [2]) [µg/mL] |
| --- | --- | --- | --- | --- | --- | --- |
| CN/N=C/c1ccc2cccc(NS(=O)(=O)c3ccc(C(F)(F)F)cc3)c2n1 [ZDR153, (E)-N-(2-((2-Methylhydrazineylidene)methyl)quinolin-8-yl)-4-(trifluoromethyl)benzenesulfonamide] | > 256 | 0.5 (≈ 1.22 µM) | 64 (≈ 157 µM) | 64 (≈ 157 µM) | > 256 | > 256 |
| COCCOCCOCCNCc1ccc2cccc(NS(=O)(=O)c3ccc(C(F)(F)F)cc3)c2n1 [ZDR132, N-(2-(5,8,11-Trioxa-2-azadodecyl)quinolin-8-yl)-4-(trifluoromethyl)benzenesulfonamide] | 64 (≈ 121 µM) | 1 (≈ 1.9 µM) | 64 (≈ 121 µM) | 256 (≈ 485 µM) | 256 (≈ 485 µM) | 256 (≈ 485 µM) |
| Cc1noc(C)c1S(=O)(=O)Nc1cccc2ccc(CN(C)C)nc12 [ZDR082, N-(2-((Dimethylamino)methyl)quinolin-8-yl)-3,5-dimethylisoxazole-4-sulfonamide] | > 256 | 0.125 (≈ 0.347 µM) | > 256 | > 256 | > 256 | > 256 |
| O=S(=O)(Nc1cccc2ccc(CNCC(O)CO)nc12)c1ccc(C(F)(F)F)cc1 (stereo not drawn) [ZDR093, N-(2-(((2,3-Dihydroxypropyl)amino)methyl)quinolin-8-yl)-4-(trifluoromethyl)benzenesulfonamide] | 64 (≈ 141 µM) | 16 (≈ 35.1 µM) | 64 (≈ 141 µM) | 128 (≈ 281 µM) | 256 (≈ 562 µM) | > 256 |
| CS(=O)(=O)NCc1ccc2cccc(NS(=O)(=O)c3ccc(C(F)(F)F)cc3)c2n1 [ZDR209, N-(2-(Methylsulfonamidomethyl)quinolin-8-yl)-4-(trifluoromethyl)benzenesulfonamide] | > 256 | 1 (≈ 2.18 µM) | > 256 | > 256 | > 256 | > 256 |
| C#CCNCc1ccc2cccc(NS(=O)(=O)c3ccc(C(F)(F)F)cc3)c2n1 [ZDR098, N-(2-((Prop-2-yn-1-ylamino)methyl)quinolin-8-yl)-4-(trifluoromethyl)benzenesulfonamide] | 64 (≈ 153 µM) | 0.125 (≈ 0.298 µM) | 64 (≈ 153 µM) | > 256 | > 256 | > 256 |
| CN(C)Cc1ccc2cccc(NS(=O)(=O)c3ccc(S(C)(=O)=O)cc3)c2n1 [ZDR071, N-(2-((Dimethylamino)methyl)quinolin-8-yl)-4-(methylsulfonyl)benzenesulfonamide] | > 256 | 4 (≈ 9.53 µM) | > 256 | > 256 | > 256 | > 256 |
| COC(=O)c1sccc1S(=O)(=O)Nc1cccc2ccc(CN(C)C)nc12 [ZDR319, Methyl 3-(N-(2-((dimethylamino)methyl)quinolin-8-yl)sulfamoyl)thiophene-2-carboxylate] | > 256 | 1 (≈ 2.47 µM) | > 256 | > 256 | > 256 | > 256 |
| NC(=S)N/N=C/c1ccc2cccc(NS(=O)(=O)c3ccc(C(F)(F)F)cc3)c2n1 [ZDR046, (E)-2-((8-((4-(Trifluoromethyl)phenyl)sulfonamido)quinolin-2-yl)methylene)hydrazine-1-carbothioamide] | 4 (≈ 8.82 µM) | 1 (≈ 2.21 µM) | 4 (≈ 8.82 µM) | 4 (≈ 8.82 µM) | > 256 | > 256 |
| O=S(=O)(Nc1cccc2ccc(/C=N/NCc3ccccc3)nc12)c1ccc(C(F)(F)F)cc1 [ZDR138, (E)-N-(2-((2-Benzylhydrazineylidene)methyl)quinolin-8-yl)-4-(trifluoromethyl)benzenesulfonamide] | > 256 | 0.5 (≈ 1.03 µM) | 128 (≈ 264 µM) | 128 (≈ 264 µM) | > 256 | > 256 |
| C=CCS(=O)(=O)Nc1cccc2ccc(CN(C)C)nc12 [ZDR259, N-(2-((Dimethylamino)methyl)quinolin-8-yl)prop-2-ene-1-sulfonamide] | > 256 | 0.25 (≈ 0.819 µM) | > 256 | 256 (≈ 838 µM) | > 256 | > 256 |
| CN(C)Cc1ccc2cccc(NS(=O)(=O)CC3CC3)c2n1 [ZDR503, 1-Cyclopropyl-N-(2-((dimethylamino)methyl)quinolin-8-yl)methanesulfonamide] | > 256 | 0.125 (≈ 0.391 µM) | > 256 | 256 (≈ 801 µM) | > 256 | > 256 |
| CCCN(CCC)Cc1ccc2cccc(NS(=O)(=O)c3ccc(C(F)(F)F)cc3)c2n1 [ZDR409, N-(2-((Dipropylamino)methyl)quinolin-8-yl)-4-(trifluoromethyl)benzenesulfonamide] | 256 (≈ 550 µM) | 0.125 (≈ 0.269 µM) | 64 (≈ 137 µM) | 256 (≈ 550 µM) | > 256 | > 256 |
| CC(C)(C)OC(=O)N1CCCC(C(=O)N/N=C/c2ccc3cccc(NS(=O)(=O)c4ccc(C(F)(F)F)cc4)c3n2)C1 (mixture of isomers) [ZDR123, tert-Butyl (E/Z)-3-(2-((8-((4-(trifluoromethyl)phenyl)sulfonamido)quinolin-2-yl)methylene)hydrazine-1-carbonyl)piperidine-1-carboxylate] | > 256 | 0.125 | > 256 | > 256 | > 256 | > 256 |
| CN(C)Cc1ccc2cccc(NS(C)(=O)=O)c2n1 [ZDR078, N-(2-((Dimethylamino)methyl)quinolin-8-yl)methanesulfonamide] | > 256 | 2 (≈ 7.16 µM) | > 256 | > 256 | > 256 | > 256 |
| O=S(=O)(Nc1cccc2ccc(CN3CCOCC3)nc12)c1ccc(C(F)(F)F)cc1 [ZDR029, N-(2-((Morpholin-4-yl)methyl)quinolin-8-yl)-4-(trifluoromethyl)-benzenesulfonamide] | > 256 | 0.25 (≈ 0.554 µM) | > 256 | > 256 | > 256 | > 256 |
| N/C(=N\[N+](=O)[O-])NCc1ccc2cccc(NS(=O)(=O)c3ccc(C(F)(F)F)cc3)c2n1 [ZDR188, (E)-N-(2-((2-Nitroguanidino)methyl)quinolin-8-yl)-4-(trifluoromethyl)benzenesulfonamide] | > 256 | 0.5 (≈ 1.07 µM) | > 256 | > 256 | > 256 | > 256 |

The remaining lines, values ahead:

| MIC (S. uberis ATCC 19436; ATCC19436, No Zinc) [µg/mL] | MIC (S. uberis ATCC 19436; ATCC19436, Zinc (50 μM)) [µg/mL] | MIC (S. aureus ATCC 6538; ATCC6538, No Zinc) [µg/mL] | MIC (S. aureus ATCC 6538; ATCC6538, Zinc (50 μM)) [µg/mL] | MIC (E. coli ATCC 10596; [1]) [µg/mL] | MIC (E. coli ATCC 10596; [2]) [µg/mL] | SMILES |
| --- | --- | --- | --- | --- | --- | --- |
| 256 (≈ 720 µM) | 0.25 (≈ 0.703 µM) | > 256 | 128 (≈ 360 µM) | > 256 | > 256 | CN(C)Cc1ccc2cccc(NS(=O)(=O)Cc3ccccc3)c2n1 [ZDR317, N-(2-((Dimethylamino)methyl)quinolin-8-yl)-1-phenylmethanesulfonamide] |
| 256 (≈ 641 µM) | 0.0625 (≈ 0.156 µM) | > 256 | 32 (≈ 80.1 µM) | > 256 | > 256 | CN(C)Cc1ccc2cccc(NS(=O)(=O)c3cccc4nsnc34)c2n1 [ZDR196, N-(2-((Dimethylamino)methyl)quinolin-8-yl)benzo[c][1,2,5]thiadiazole-4-sulfonamide] |
| 128 (≈ 356 µM) | 0.0625 (≈ 0.174 µM) | > 256 | 32 (≈ 89 µM) | > 256 | > 256 | CN(C)Cc1ccc2cccc(NS(=O)(=O)c3ccccc3F)c2n1 [ZDR201, N-(2-((Dimethylamino)methyl)quinolin-8-yl)-2-fluorobenzenesulfonamide] |
| 128 (≈ 301 µM) | < 0.125 | 256 (≈ 602 µM) | > 256 | 256 (≈ 602 µM) | > 256 | CN(C)Cc1ccc2cccc(NS(=O)(=O)c3cccc(OC(F)(F)F)c3)c2n1 [ZDR085, N-(2-((Dimethylamino)methyl)quinolin-8-yl)-3-(trifluoromethoxy)benzenesulfonamide] |
| > 256 | 8 (≈ 22.4 µM) | > 256 | > 256 | > 256 | > 256 | CN(C)Cc1ccc2cccc(NS(=O)(=O)c3cccc(O)c3)c2n1 [ZDR163, N-(2-((Dimethylamino)methyl)quinolin-8-yl)-3-hydroxybenzenesulfonamide] |
| > 256 | 1 (≈ 2.73 µM) | > 256 | > 256 | > 256 | > 256 | CN(C)Cc1ccc2cccc(NS(=O)(=O)c3cccc(C#N)c3)c2n1 [ZDR076, 3-cyano-N-(2-((dimethylamino)methyl)quinolin-8-yl)benzenesulfonamide] |
| 256 (≈ 718 µM) | > 256 | > 256 | > 256 | > 256 | > 256 | CN(C)Cc1ccc2cccc(NS(=O)(=O)c3ccc(N)cc3)c2n1 [ZDR160, 4-Amino-N-(2-((dimethylamino)methyl)quinolin-8-yl)benzenesulfonamide] |
| 128 (≈ 345 µM) | 0.25 (≈ 0.673 µM) | 256 (≈ 689 µM) | > 256 | > 256 | > 256 | COc1cccc(S(=O)(=O)Nc2cccc3ccc(CN(C)C)nc23)c1 [ZDR314, N-(2-((Dimethylamino)methyl)quinolin-8-yl)-3-methoxybenzenesulfonamide] |
